Results: PubChem BioAssay (NCI)
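96-well plates; 48 h exposure; 5 concentrations. Endpoints by linear interpolation between flanking doses. Not reached: highest tested concentration assigned. TGI denotes the concentration required for complete inhibition of growth.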

Columns and labels:
Assay in all cases: NCI tumour cell line growth inhibition, 48 h
786-0 renal = system: 786-0 renal
A498 renal = system: A498 renal
A549 NSCLC = system: A549 NSCLC
ACHN renal = system: ACHN renal
BT-549 breast = system: BT-549 breast
CAKI-1 renal = system: CAKI-1 renal
CCRF-CEM leukemia = system: CCRF-CEM leukemia
COLO 205 colon = system: COLO 205 colon
DLD-1 colon = system: DLD-1 colon
DMS 114 small cell lung = system: DMS 114 small cell lung
DMS 273 small cell lung = system: DMS 273 small cell lung
DU-145 prostate = system: DU-145 prostate
EKVX NSCLC = system: EKVX NSCLC
HCC-2998 colon = system: HCC-2998 colon
HCT-116 colon = system: HCT-116 colon
HCT-15 colon = system: HCT-15 colon
HL-60(TB) leukemia = system: HL-60(TB) leukemia
HOP-18 NSCLC = system: HOP-18 NSCLC
HOP-62 NSCLC = system: HOP-62 NSCLC
HOP-92 NSCLC = system: HOP-92 NSCLC
HS 578T breast = system: HS 578T breast
HT29 colon = system: HT29 colon
IGROV1 ovarian = system: IGROV1 ovarian
K-562 leukemia = system: K-562 leukemia
KM12 colon = system: KM12 colon
KM20L2 colon = system: KM20L2 colon
LOX IMVI melanoma = system: LOX IMVI melanoma
M14 melanoma = system: M14 melanoma
M19-MEL melanoma = system: M19-MEL melanoma
MALME-3M melanoma = system: MALME-3M melanoma
MCF7 breast = system: MCF7 breast
MDA-MB-231 breast = system: MDA-MB-231 breast
MDA-MB-435 = system: MDA-MB-435
MDA-N = system: MDA-N
MOLT-4 leukemia = system: MOLT-4 leukemia
NCI-H226 lung = system: NCI-H226 lung
NCI-H23 lung = system: NCI-H23 lung
NCI-H460 lung = system: NCI-H460 lung
NCI-H522 lung = system: NCI-H522 lung
NCI/ADR-RES ovarian = system: NCI/ADR-RES ovarian
OVCAR-3 ovarian = system: OVCAR-3 ovarian
OVCAR-4 ovarian = system: OVCAR-4 ovarian
OVCAR-5 ovarian = system: OVCAR-5 ovarian
OVCAR-8 ovarian = system: OVCAR-8 ovarian
P388 leukemia = system: P388 leukemia
P388/ADR leukemia = system: P388/ADR leukemia
PC-3 prostate = system: PC-3 prostate
RPMI-8226 leukemia = system: RPMI-8226 leukemia
RXF 393 renal = system: RXF 393 renal
SF-268 CNS = system: SF-268 CNS
SF-295 CNS = system: SF-295 CNS
SF-539 CNS = system: SF-539 CNS
SK-MEL-2 melanoma = system: SK-MEL-2 melanoma
SK-MEL-28 melanoma = system: SK-MEL-28 melanoma
SK-MEL-5 melanoma = system: SK-MEL-5 melanoma
SK-OV-3 ovarian = system: SK-OV-3 ovarian
SN12C renal = system: SN12C renal
SN12K1 renal = system: SN12K1 renal
SNB-19 CNS = system: SNB-19 CNS
SNB-75 CNS = system: SNB-75 CNS
SNB-78 CNS = system: SNB-78 CNS
SR leukemia = system: SR leukemia
SW-620 colon = system: SW-620 colon
T-47D breast = system: T-47D breast
TK-10 renal = system: TK-10 renal
U251 CNS = system: U251 CNS
UACC-257 melanoma = system: UACC-257 melanoma
UACC-62 melanoma = system: UACC-62 melanoma
UO-31 renal = system: UO-31 renal
XF 498 CNS = system: XF 498 CNS
LXFL 529 NSCLC = system: LXFL 529 NSCLC
RXF-631 renal = system: RXF-631 renal

CNC=O
TGI (786-0 renal): > 10 mM
TGI (A498 renal): > 10 mM
TGI (A549 NSCLC): > 10 mM
TGI (ACHN renal): > 10 mM
TGI (BT-549 breast): > 10 mM
TGI (CAKI-1 renal): > 10 mM
TGI (CCRF-CEM leukemia): > 10 mM
TGI (COLO 205 colon): > 10 mM
TGI (DLD-1 colon): > 10 mM
TGI (DMS 114 small cell lung): > 10 mM
TGI (DMS 273 small cell lung): > 10 mM
TGI (DU-145 prostate): > 10 mM
TGI (EKVX NSCLC): > 10 mM
TGI (HCC-2998 colon): < 3.98 mM
TGI (HCT-116 colon): > 10 mM
TGI (HCT-15 colon): > 10 mM
TGI (HL-60(TB) leukemia): > 10 mM
TGI (HOP-18 NSCLC): > 10 mM
TGI (HOP-62 NSCLC): < 3.98 mM
TGI (HOP-92 NSCLC): > 10 mM
TGI (HS 578T breast): > 10 mM
TGI (HT29 colon): > 10 mM
TGI (IGROV1 ovarian): > 10 mM
TGI (K-562 leukemia): > 10 mM
TGI (KM12 colon): > 10 mM
TGI (KM20L2 colon): > 10 mM
TGI (LOX IMVI melanoma): > 10 mM
TGI (M14 melanoma): > 10 mM
TGI (M19-MEL melanoma): > 10 mM
TGI (MALME-3M melanoma): > 10 mM
TGI (MCF7 breast): > 10 mM
TGI (MDA-MB-231 breast): > 10 mM
TGI (MDA-MB-435): > 10 mM
TGI (MDA-N): > 10 mM
TGI (MOLT-4 leukemia): > 10 mM
TGI (NCI-H226 lung): > 10 mM
TGI (NCI-H23 lung): > 10 mM
TGI (NCI-H460 lung): > 10 mM
TGI (NCI-H522 lung): > 10 mM
TGI (NCI/ADR-RES ovarian): > 10 mM
TGI (OVCAR-3 ovarian): > 10 mM
TGI (OVCAR-4 ovarian): > 10 mM
TGI (OVCAR-5 ovarian): > 10 mM
TGI (OVCAR-8 ovarian): > 10 mM
TGI (P388 leukemia): > 5.62 mM
TGI (P388/ADR leukemia): > 10 mM
TGI (PC-3 prostate): > 10 mM
TGI (RPMI-8226 leukemia): > 10 mM
TGI (RXF 393 renal): > 10 mM
TGI (SF-268 CNS): > 10 mM
TGI (SF-295 CNS): > 10 mM
TGI (SF-539 CNS): > 10 mM
TGI (SK-MEL-2 melanoma): > 10 mM
TGI (SK-MEL-28 melanoma): > 10 mM
TGI (SK-MEL-5 melanoma): > 10 mM
TGI (SK-OV-3 ovarian): < 3.98 mM
TGI (SN12C renal): > 7.74 mM
TGI (SN12K1 renal): > 10 mM
TGI (SNB-19 CNS): > 10 mM
TGI (SNB-75 CNS): > 10 mM
TGI (SNB-78 CNS): > 10 mM
TGI (SR leukemia): > 10 mM
TGI (SW-620 colon): > 10 mM
TGI (T-47D breast): > 10 mM
TGI (TK-10 renal): > 10 mM
TGI (U251 CNS): > 10 mM
TGI (UACC-257 melanoma): > 10 mM
TGI (UACC-62 melanoma): > 9.81 mM
TGI (UO-31 renal): > 10 mM
TGI (XF 498 CNS): > 10 mM

Cc1cccc(C)c1NC(=O)C(=O)CC(=O)CO
TGI (786-0 renal): > 0.1 mM
TGI (A498 renal): > 0.1 mM
TGI (A549 NSCLC): > 0.1 mM
TGI (ACHN renal): > 0.1 mM
TGI (CAKI-1 renal): > 0.1 mM
TGI (CCRF-CEM leukemia): > 0.1 mM
TGI (COLO 205 colon): > 0.1 mM
TGI (DLD-1 colon): > 0.1 mM
TGI (DMS 114 small cell lung): > 0.1 mM
TGI (DMS 273 small cell lung): > 0.1 mM
TGI (EKVX NSCLC): > 0.1 mM
TGI (HCC-2998 colon): > 0.1 mM
TGI (HCT-116 colon): > 0.1 mM
TGI (HCT-15 colon): > 0.1 mM
TGI (HL-60(TB) leukemia): > 0.1 mM
TGI (HOP-18 NSCLC): > 0.1 mM
TGI (HOP-62 NSCLC): > 0.1 mM
TGI (HOP-92 NSCLC): > 0.1 mM
TGI (HT29 colon): > 0.1 mM
TGI (IGROV1 ovarian): > 0.1 mM
TGI (K-562 leukemia): > 0.1 mM
TGI (KM12 colon): > 0.1 mM
TGI (KM20L2 colon): > 0.1 mM
TGI (LOX IMVI melanoma): > 0.1 mM
TGI (LXFL 529 NSCLC): > 0.1 mM
TGI (M14 melanoma): > 0.1 mM
TGI (M19-MEL melanoma): > 0.1 mM
TGI (MALME-3M melanoma): > 0.1 mM
TGI (MOLT-4 leukemia): > 0.1 mM
TGI (NCI-H226 lung): > 0.1 mM
TGI (NCI-H23 lung): > 0.1 mM
TGI (NCI-H460 lung): > 0.1 mM
TGI (NCI-H522 lung): > 0.1 mM
TGI (OVCAR-3 ovarian): > 0.1 mM
TGI (OVCAR-4 ovarian): > 0.1 mM
TGI (OVCAR-5 ovarian): > 0.1 mM
TGI (OVCAR-8 ovarian): > 0.1 mM
TGI (RPMI-8226 leukemia): > 0.1 mM
TGI (RXF 393 renal): > 0.1 mM
TGI (RXF-631 renal): > 0.1 mM
TGI (SF-268 CNS): > 0.1 mM
TGI (SF-295 CNS): > 0.1 mM
TGI (SF-539 CNS): > 0.1 mM
TGI (SK-MEL-2 melanoma): > 0.1 mM
TGI (SK-MEL-28 melanoma): > 0.1 mM
TGI (SK-MEL-5 melanoma): > 0.1 mM
TGI (SK-OV-3 ovarian): > 0.1 mM
TGI (SN12C renal): > 0.1 mM
TGI (SNB-19 CNS): > 0.1 mM
TGI (SNB-75 CNS): > 0.1 mM
TGI (SNB-78 CNS): > 0.1 mM
TGI (SR leukemia): > 0.1 mM
TGI (SW-620 colon): > 0.1 mM
TGI (TK-10 renal): > 0.1 mM
TGI (U251 CNS): > 0.1 mM
TGI (UACC-257 melanoma): > 0.1 mM
TGI (UACC-62 melanoma): > 0.1 mM
TGI (UO-31 renal): > 0.1 mM
